The text below walks through data of US20250296971A1, “GASTRIC INHIBITORY PEPTIDE RECEPTOR LIGANDS” (priority 2021, published 2025).

*1 amine or outer side, *2 acyl side, *3 side chain or, on linkers, in order; H or OH if unused. Where a SMILES comes first, the peptide text is derived from it. Bridges are numbered along the chain shown (N, C = ends). [ ]: non-standard residue; d: D form. Nip(3R) = O=C([C@@H]1CCCN([*:1])C1)[*:2]; Pro(4,4-F2) = O=C(O)[C@@H]1CC(F)(F)CN1; 1Nal = N[C@@H](Cc1cccc2ccccc12)C(=O)O; mXylylene = c1cc(C[*:1])cc(C[*:2])c1; pXylylene = c1cc(C[*:2])ccc1C[*:1]; 2Thi = N[C@@H](Cc1cccs1)C(=O)O; Pen = CC(C)(S)[C@H](N)C(=O)O; Aib = CC(C)(N)C(=O)O

The experiment concerns the target T1, GIPR (CHO-K1-hGIPR cells) (Homo sapiens, UniProt P48546).
T1 construct: host or cells: CHO-K1
T1 sequence (P48546 22-466): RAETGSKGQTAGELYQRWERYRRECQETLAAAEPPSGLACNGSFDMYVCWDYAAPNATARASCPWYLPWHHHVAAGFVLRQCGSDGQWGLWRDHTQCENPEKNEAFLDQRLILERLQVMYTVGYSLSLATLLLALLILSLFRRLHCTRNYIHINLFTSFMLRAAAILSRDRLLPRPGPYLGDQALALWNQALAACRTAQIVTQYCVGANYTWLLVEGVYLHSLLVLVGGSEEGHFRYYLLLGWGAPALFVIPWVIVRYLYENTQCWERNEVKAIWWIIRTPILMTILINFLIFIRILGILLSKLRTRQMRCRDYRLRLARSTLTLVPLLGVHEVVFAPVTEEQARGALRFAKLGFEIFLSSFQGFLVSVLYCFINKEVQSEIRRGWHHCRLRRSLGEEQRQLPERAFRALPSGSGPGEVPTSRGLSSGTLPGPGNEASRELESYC
Briefly: FACS binding assay. As to conditions: competition with 20 nM GIP-057, 4° C. for 1 hour, read-out: pIC50 Category (converted). The gist of the method: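 Read-out: flow cytometric median fluorescence intensity, APC/Cy5 channel, plotted vs peptide conc.; 4PL fit → EC50/pEC50 or IC50/pIC50. Cells: CHO-K1-hGIPR, Accutase-detached, 500.000/mL in PBS + 1% FCS. Detection: APC-streptavidin 1 μg/mL, 30 min, on ice.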
(In general: Flow cytometry measures light scatter and fluorescence of single cells or particles in a stream.)

Turning to `CC[C@H](C)[C@@H]1NC(=O)[C@H](CC(C)C)NC(=O)[C@H](C)NC(=O)[C@@H](NC(=O)[C@H](CC(C)C)NC(=O)[C@H](CCC(=O)O)NC(=O)[C@@H]2CCCN2C(=O)[C@@H](Cc2c[nH]c3ccccc23)NC(=O)[C@H](Cc2c[nH]c3ccccc23)NC(=O)[C@H](CC(=O)O)NC(=O)[C@H](Cc2ccc(O)cc2)NC(=O)[C@@H](N)CCSC)CSCc2cccc(c2)CSC[C@@H](C(N)=O)NC1=O` [GIP-329, H-Met-Tyr-Asp-Trp-trp-Pro-Glu-Leu-[Cys(3MeBn)-Ala-Leu-Ile-Cys]-NH2] (H-MYDW[dW]PELCALIC-NH2; linker 9-13 via mXylylene), the IC50 is greater than 1000 nM.

Take `CC[C@H](C)[C@@H]1NC(=O)[C@@H](CC(C)C)NC(=O)[C@H](C)NC(=O)[C@@H](NC(=O)[C@H](CC(C)C)NC(=O)[C@H](CCC(=O)O)NC(=O)[C@@H]2CCCN2C(=O)[C@H](Cc2c[nH]c3ccccc23)NC(=O)[C@H](Cc2c[nH]c3ccccc23)NC(=O)[C@H](CC(=O)O)NC(=O)[C@H](Cc2ccc(O)cc2)NC(=O)[C@@H](N)CCSC)CSCc2cccc(c2)CSC[C@@H](C(N)=O)NC1=O` [GIP-330] (H-MYDWWPELCA[dL]IC-NH2; linker 9-13 via mXylylene): the IC50 is greater than 1000 nM.

As to `CC[C@H](C)[C@@H]1NC(=O)[C@H](CC(C)C)NC(=O)[C@H](C)NC(=O)[C@@H](NC(=O)[C@H](CC(C)C)NC(=O)[C@H](CCC(=O)O)NC(=O)[C@@H]2CCCN2C(=O)[C@H](Cc2c[nH]c3ccccc23)NC(=O)[C@H](Cc2c[nH]c3ccccc23)NC(=O)[C@H](CC(=O)O)NC(=O)[C@H](Cc2ccc(O)cc2)NC(=O)[C@@H](N)CCSC)CSCc2ccc(cc2)CSC[C@@H](C(N)=O)NC1=O` [GIP-331] (H-MYDWWPELCALIC-NH2; linker 9-13 via pXylylene), the IC50 was greater than 1000 nM.

Regarding `CC[C@H](C)[C@@H]1NC(=O)[C@H](CC(C)C)NC(=O)[C@H](C)NC(=O)[C@@H](NC(=O)[C@H](CC(C)C)NC(=O)[C@H](CCC(=O)O)NC(=O)[C@@H]2CCCN2C(=O)[C@H](Cc2c[nH]c3ccccc23)NC(=O)[C@H](Cc2c[nH]c3ccccc23)NC(=O)[C@H](C)NC(=O)[C@H](Cc2ccc(O)cc2)NC(=O)[C@@H](N)CCSC)CSCc2cccc(c2)CSC[C@@H](C(N)=O)NC1=O` [GIP-332] (H-MYAWWPELCALIC-NH2; linker 9-13 via mXylylene), the IC50 was greater than 1000 nM.

For `CC[C@H](C)[C@@H]1NC(=O)[C@H](CC(C)C)NC(=O)[C@H](C)NC(=O)[C@@H](NC(=O)[C@H](CC(C)C)NC(=O)[C@H](CCC(=O)O)NC(=O)[C@@H]2CCCN2C(=O)[C@H](Cc2c[nH]c3ccccc23)NC(=O)[C@H](C)NC(=O)[C@H](CC(=O)O)NC(=O)[C@H](Cc2ccc(O)cc2)NC(=O)[C@@H](N)CCSC)CSCc2cccc(c2)CSC[C@@H](C(N)=O)NC1=O` [GIP-333] (H-MYDAWPELCALIC-NH2; linker 9-13 via mXylylene), the IC50 was greater than 1000 nM.

On to `CC[C@H](C)[C@@H]1NC(=O)[C@H](CC(C)C)NC(=O)[C@H](C)NC(=O)[C@@H](NC(=O)[C@H](CC(C)C)NC(=O)[C@H](CCC(=O)O)NC(=O)[C@@H]2CCCN2C(=O)[C@H](C)NC(=O)[C@H](Cc2c[nH]c3ccccc23)NC(=O)[C@H](CC(=O)O)NC(=O)[C@H](Cc2ccc(O)cc2)NC(=O)[C@@H](N)CCSC)CSCc2cccc(c2)CSC[C@@H](C(N)=O)NC1=O` [GIP-334] (H-MYDWAPELCALIC-NH2; linker 9-13 via mXylylene), for which the IC50 was greater than 1000 nM.

With `CC[C@H](C)[C@@H]1NC(=O)[C@H](CC(C)C)NC(=O)[C@H](C)NC(=O)[C@@H](NC(=O)[C@H](CC(C)C)NC(=O)[C@H](C)NC(=O)[C@@H]2CCCN2C(=O)[C@H](Cc2c[nH]c3ccccc23)NC(=O)[C@H](Cc2c[nH]c3ccccc23)NC(=O)[C@H](CC(=O)O)NC(=O)[C@H](Cc2ccc(O)cc2)NC(=O)[C@@H](N)CCSC)CSCc2cccc(c2)CSC[C@@H](C(N)=O)NC1=O` [GIP-335] (H-MYDWWPALCALIC-NH2; linker 9-13 via mXylylene), the IC50 is greater than 1000 nM.

For `CC[C@H](C)[C@@H]1NC(=O)[C@H](CC(C)C)NC(=O)[C@H](C)NC(=O)[C@@H](NC(=O)[C@H](C)NC(=O)[C@H](CCC(=O)O)NC(=O)[C@@H]2CCCN2C(=O)[C@H](Cc2c[nH]c3ccccc23)NC(=O)[C@H](Cc2c[nH]c3ccccc23)NC(=O)[C@H](CC(=O)O)NC(=O)[C@H](Cc2ccc(O)cc2)NC(=O)[C@@H](N)CCSC)CSCc2cccc(c2)CSC[C@@H](C(N)=O)NC1=O` [GIP-336] (H-MYDWWPEACALIC-NH2; linker 9-13 via mXylylene), the IC50 was greater than 1000 nM.

Regarding `CSCC[C@H](N)C(=O)N[C@@H](Cc1ccc(O)cc1)C(=O)N[C@@H](CC(=O)O)C(=O)N[C@@H](Cc1c[nH]c2ccccc12)C(=O)N[C@@H](Cc1c[nH]c2ccccc12)C(=O)N1CCC[C@H]1C(=O)N[C@@H](CCC(=O)O)C(=O)N[C@@H](CC(C)C)C(=O)N[C@H]1CSCc2cccc(c2)CSC[C@@H](C(N)=O)NC(=O)[C@H](C)NC(=O)[C@H](CC(C)C)NC(=O)[C@H](C)NC1=O` [GIP-337] (H-MYDWWPELCALAC-NH2; linker 9-13 via mXylylene), the IC50 was greater than 1000 nM.

With `CC[C@H](C)[C@@H]1NC(=O)[C@H](CC(C)C)NC(=O)C(C)(C)NC(=O)[C@@H](NC(=O)[C@H](CC(C)C)NC(=O)[C@H](CCC(=O)O)NC(=O)[C@@H]2CCCN2C(=O)[C@H](Cc2c[nH]c3ccccc23)NC(=O)[C@H](Cc2c[nH]c3ccccc23)NC(=O)[C@H](CC(=O)O)NC(C)=O)C(C)(C)SCc2cccc(c2)CSC[C@@H](C(N)=O)NC1=O` [GIP-338, Ac-Asp-Trp-Trp-Pro-Glu-Leu-[Pen(3MeBn)-Aib-Leu-Ile-Cys]-NH2] (Ac-DWWPEL[Pen][Aib]LIC-NH2; linker 7-11 via mXylylene), the IC50 is greater than 1000 nM.

Regarding `CC[C@H](C)[C@@H]1NC(=O)[C@H](CC(C)C)NC(=O)C(C)(C)NC(=O)[C@@H](NC(=O)[C@H](CC(C)C)NC(=O)[C@H](CCC(=O)O)NC(=O)[C@@H]2CCCN2C(=O)[C@H](Cc2c[nH]c3ccccc23)NC(=O)[C@H](Cc2c[nH]c3ccccc23)NC(=O)[C@H](CC(=O)O)NC(C)=O)CSCc2cccc(c2)CSC(C)(C)[C@@H](C(N)=O)NC1=O` [GIP-339, Ac-Asp-Trp-Trp-Pro-Glu-Leu-[Cys(3MeBn)-Aib-Leu-Ile-Pen]-NH2] (Ac-DWWPELC[Aib]LI[Pen]-NH2; linker 7-11 via mXylylene), the IC50 was greater than 1000 nM.

In the case of `CC[C@H](C)[C@@H]1NC(=O)[C@H](CC(C)C)NC(=O)C(C)(C)NC(=O)[C@@H](NC(=O)[C@H](CC(N)=O)NC(=O)[C@H](CCC(=O)O)NC(=O)[C@@H]2CCCN2C(=O)[C@H](Cc2cccc3ccccc23)NC(=O)[C@H](Cc2c[nH]c3ccccc23)NC(=O)[C@H](CC(=O)O)NC(C)=O)CSCc2cccc(c2)CSC[C@@H](C(N)=O)NC1=O` [GIP-340, Ac-Asp-Trp-1Ni-Pro-Glu-Asn-[Cys(3MeBn)-Aib-Leu-Ile-Cys]-NH2] (Ac-DW[1Nal]PENC[Aib]LIC-NH2; linker 7-11 via mXylylene), the IC50 was greater than 1000 nM.

For the compound `CC[C@H](C)[C@@H]1NC(=O)[C@H](CC(C)C)NC(=O)C(C)(C)NC(=O)[C@@H](NC(=O)[C@H](CC(C)C)NC(=O)[C@H](CCC(=O)O)NC(=O)[C@@H]2CC(F)(F)CN2C(=O)[C@H](Cc2cccc3ccccc23)NC(=O)[C@H](Cc2c[nH]c3ccccc23)NC(=O)[C@H](CC(=O)O)NC(C)=O)CSCc2cccc(c2)CSC[C@@H](C(N)=O)NC1=O` [GIP-341, Ac-Asp-Trp-1Ni-4Dfp-Glu-Leu-[Cys(3MeBn)-Aib-Leu-Ile-Cys]-NH2] (Ac-DW[1Nal][Pro(4,4-F2)]ELC[Aib]LIC-NH2; linker 7-11 via mXylylene), the IC50 was greater than 1000 nM.

In the case of `CC[C@H](C)[C@@H]1NC(=O)[C@H](CC(C)C)NC(=O)C(C)(C)NC(=O)[C@@H](NC(=O)[C@H](CC(C)C)NC(=O)[C@H](CCC(=O)O)NC(=O)[C@@H]2CCCN(C(=O)[C@H](Cc3cccc4ccccc34)NC(=O)[C@H](Cc3c[nH]c4ccccc34)NC(=O)[C@H](CC(=O)O)NC(C)=O)C2)CSCc2cccc(c2)CSC[C@@H](C(N)=O)NC1=O` [GIP-342, Ac-Asp-Trp-1Ni-Rni-Glu-Leu-[Cys(3MeBn)-Aib-Leu-Ile-Cys]-NH2] (Ac-DW[1Nal][Nip(3R)]ELC[Aib]LIC-NH2; linker 7-11 via mXylylene), the IC50 is greater than 1000 nM.

Consider `CC[C@H](C)[C@@H]1NC(=O)[C@H](CC(C)C)NC(=O)C(C)(C)NC(=O)[C@@H](NC(=O)[C@H](Cc2cccs2)NC(=O)[C@H](CCC(=O)O)NC(=O)[C@@H]2CCCN2C(=O)[C@H](Cc2cccc3ccccc23)NC(=O)[C@H](Cc2c[nH]c3ccccc23)NC(=O)[C@H](CC(=O)O)NC(C)=O)CSCc2cccc(c2)CSC[C@@H](C(N)=O)NC1=O` [GIP-343, Ac-Asp-Trp-1Ni-Pro-Glu-Thi-[Cys(3MeBn)-Aib-Leu-Ile-Cys]-NH2] (Ac-DW[1Nal]PE[2Thi]C[Aib]LIC-NH2; linker 7-11 via mXylylene), for which the IC50 was greater than 1000 nM.

Turning to `CC[C@H](C)[C@@H]1NC(=O)[C@H](CC(C)C)NC(=O)C(C)(C)NC(=O)[C@@H](NC(=O)[C@H](Cc2ccccc2)NC(=O)[C@H](CCC(=O)O)NC(=O)[C@@H]2CCCN2C(=O)[C@H](Cc2cccc3ccccc23)NC(=O)[C@H](Cc2c[nH]c3ccccc23)NC(=O)[C@H](CC(=O)O)NC(C)=O)CSCc2cccc(c2)CSC[C@@H](C(N)=O)NC1=O` [GIP-344, Ac-Asp-Trp-1Ni-Pro-Glu-Phe-[Cys(3MeBn)-Aib-Leu-Ile-Cys]-NH2] (Ac-DW[1Nal]PEFC[Aib]LIC-NH2; linker 7-11 via mXylylene), the IC50 was greater than 1000 nM.
